Drawing on patent US5972946A, “Acetamide derivative, process for preparing the same, and a pharmaceutical composition containing the same” (Dainippon Pharmaceutical Co., Ltd., priority 1995, dated 1999), this text covers IC50 for 45 compounds.

The target in the test is peripheral (ω3) benzodiazepine (BZ) receptor (Rattus norvegicus, UniProt P16257). The experiment in a line: BZω3 (peripheral-type) benzodiazepine receptor binding assay.
Protocol: Experiment 1: Central (ω1, ω2) and peripheral (ω3) benzodiazepine (BZ) receptor binding assays
BZω1 and BZω2 receptor binding assays were carried out according to the method of Stephens, D. N. et al. [cf.
Receptor membrane fractions for ω1, ω2 and ω3 were prepared from the cerebellum (ω1), spinal cord (ω1) or kidney (ω3) in 7-8 week old male rats of Wistar strain by the procedure described below.
After the cerebellum or spinal cord was homogenized with 20 volumes of ice-cold 50 mM Tris-citrate buffer (pH 7.1), the homogenate was centrifuged for 15 minutes at 40,000 g. The pellet obtained was washed 4 times by the same procedure, frozen and stored for 24 hours at -60° C. The resulting pellet, after being thawed, washed with the buffer and centrifuged, was suspended in the buffer I for the binding assay (50 mM Tris-HCl buffer containing 120 mM NaCl, 5 mM KCl, 2 mM CaCl2 and 1 mM MgCl2 ; pH 7.4) and the suspension thus obtained (containing 1 g wet tissue/40 ml) was used for the BZω1 and BZω2 receptor binding assays. On the other hand, the kidney was homogenized with 20 volumes of the ice-cold buffer II for the binding assay (50 mM Na--K phosphate buffer containing 100 mM NaCl; pH 7.4), filtered through 4 sheets of gauze, and centrifuged for 20 minutes at 40,000 g. The pellet obtained was suspended in the buffer II and the suspension (containing 1 g wet tissue/100 ml) was used for the binding assay as BZω3 receptor membrane source.
Flumazenil (final concentration: 0.3 nM for (ω1 and 1 nM for ω2) and flunitrazepam (final concentration: 10 μM) were used for the BZω1 or BZω2 receptor binding assays as the isotope-labeled and unlabeled ligands, respectively. For the BZω3 receptor binding assay, [^3 H] 4'-chlorodiazepam (7-chloro-1,3-dihydro-1-methyl-5-(4-chlorophenyl)-2H-1,4-benzodiazepin-2-one) (final concentration: 0.5 nM) and diazepam (final concentration: 100 μM) were used as the isotope-labeled and unlabeled ligands, respectively. Incubation was performed for 30 minutes at 37° C. in the BZω1 or BZω2 receptor binding assays, and for 150 minutes at 0° C. in the BZω3 receptor binding assay. The BZω1 or BZω2 receptor binding assays were carried out in the presence of bicuculline (final concentration: 100 μM).
The binding assay was performed by the following procedure. After adding each test compound at certain known concentrations, a [^3 H] ligand and the buffer I or II to each test tube, each assay was started by addition of membrane preparation (total volume of 1 ml). After incubation, the assay was terminated by filtration with suction through a Whatman GF/B glass fiber filter using a cell harvester (Brandel, USA). The filters were rapidly washed 3 times with 5 ml of ice-cold 50 mM Tris-HCl buffer (pH 7.7) for ω1 and ω2, or the buffer II forω3, and transferred to scintillation vials containing 10 ml liquid scintillation cocktail (ACS-II, Amersham, USA). After a few hours, retained radioactivity was counted by a liquid scintillation spectrometer. Specific binding of [^3 H] ligands was calculated as the difference between amounts of radioactivity bound in the presence and absence of excess unlabeled ligands.
What is called IC50 is the concentration at which inhibition is half-maximal. The low end stands for greater potency in that assay, the high end for weaker potency in that assay. The compound `CCCCN(CCCC)C(=O)CNc1nc(-c2ccc(Cl)cc2)nc(C)c1C` [Example 15] gave an IC50 of 3.86 nM.
For `COc1ccc(-c2nc(C)c(C)c(NCC(=O)N(C)c3ccccc3)n2)cc1` [Example 26], the IC50 was 0.28 nM.
To `Cc1nc(-c2ccc(C(F)(F)F)cc2)nc(NCC(=O)N(C)c2ccccc2)c1C` [Example 27] belongs 0.11 nM; to `COc1ccc(N(C)C(=O)CNc2nc(-c3ccccc3)nc(C)c2C)cc1` [Example 41], 2.53 nM; to `CCN(C(=O)CNc1nc(-c2ccc(C(F)(F)F)cc2)nc(C)c1C)c1ccccc1` [Example 49], 0.23 nM.
Then `CCN(C(=O)CNc1nc(-c2ccccc2)nc(C)c1C)c1ccc(Cl)cc1` [Example 51], with 0.32 nM; and `CCCCN(C(=O)CNc1nc(-c2ccccc2)nc(C)c1C)c1ccccc1` [Example 57], with 5.39 nM.
Then `Cc1nc(-c2ccc(Cl)cc2)nc(NCC(=O)N2CC(C)OC(C)C2)c1C` (stereo not drawn) [Example 68, 4-[2-(4-Chlorophenyl)-5,6-dimethyl-4-pyrimidinylamino]acetyl-2,6-dimethylmorpholine], with 2.19 nM; and `CCCN(CCC)C(=O)C(CO)Nc1nc(-c2ccccc2)nc(C)c1C` (stereo not drawn) [Example 69, 3-hydroxy-2-(5,6-dimethyl-2-phenyl-4-pyrimidinylamino)-N,N-dipropylpropanamide], with 2.75 nM.
As for `CCCN(CCC)C(=O)CN(C)c1nc(-c2ccccc2)nc(C)c1C` [Example 70, 2-[methyl-(5,6-dimethyl-2-phenyl-4-pyrimidinyl)amino]-N,N-dipropylacetamide], the IC50 came out at 1.12 nM.
To `Cc1nc(-c2ccccc2)nc(N(C)CC(=O)N(C)c2ccc(Cl)cc2)c1C` [Example 76] belongs 1.33 nM.
To `CCCN(CCC)C(=O)C1Cc2ccccc2N1c1nc(-c2ccccc2)nc(C)c1C` (stereo not drawn) [Example 81, 2,3-dihydro-1-(5,6-dimethyl-2-phenyl-4-pyrimidinyl)-N,N-dipropyl-1H-indole-2-carboxamide] belongs 6.9 nM; to `CCc1c(C)nc(-c2ccccc2)nc1NCC(=O)N(C)c1ccc(Cl)cc1` [Example 84, N-(4-chlorophenyl)-2-(5-ethyl-6-methyl-2-phenyl-4-pyrimidinylamino)-N-methylacetamide], 2.04 nM.
To `CCCN(CCC)C(=O)CNc1nc(-c2ccccc2)nc(CC)c1C` [Example 85, 2-(6-ethyl-5-methyl-2-phenyl-4-pyrimidinylamino)-N,N-dipropylacetamide] belongs 0.18 nM; to `CCCN(CCC)C(=O)CNc1nc(-c2ccccc2)nc(-c2ccccc2)c1C` [Example 97], 2.27 nM.
`CCCN(CCC)C(=O)CNc1nc(-c2ccccc2)nc2c1CCCC2` [Example 102, 2-(5,6,7,8-tetrahydro-2-phenyl-4-quinazolinylamino)-N,N-dipropylacetamide]: the 50% inhibitory concentration (IC50) turned out to be 3.31 nM.
To `CCCN(CCC)C(=O)CNc1nc(-c2ccc(F)cc2)nc2c1CCCC2` [Example 103] belongs 2.9 nM.
To `CCCN(CCC)C(=O)CNc1nc(-c2ccc(Cl)cc2)nc2c1CCCC2` [Example 104] belongs 3.44 nM; to `CCCCN(CCCC)C(=O)CNc1nc(-c2ccccc2)nc2c1CCCC2` [Example 105], 4.18 nM.
To `CCCCN(CCCC)C(=O)CNc1nc(-c2ccc(F)cc2)nc2c1CCCC2` [Example 106] belongs 4.24 nM; to `CCCCN(CCCC)C(=O)CNc1nc(-c2ccc(Cl)cc2)nc2c1CCCC2` [Example 107], 4.23 nM.
As to `CN(C(=O)CNc1nc(-c2ccccc2)nc2c1CCCC2)c1ccc(Cl)cc1` [Example 108], the IC50 is 1.21 nM.
`CN(C(=O)CNc1nc(-c2ccc(Cl)cc2)nc2c1CCCC2)c1ccc(Cl)cc1` [Example 109] displayed an IC50 of 2.09 nM.
Then `CCCN(CCC)C(=O)CN(C)c1nc(-c2ccccc2)nc2c1CCCC2` [Example 110], with 1.99 nM; and `CN(CC(=O)N(C)c1ccc(Cl)cc1)c1nc(-c2ccccc2)nc2c1CCCC2` [Example 111], with 2.05 nM; and `CCCN(CCC)C(=O)C(CO)Nc1nc(-c2ccccc2)nc2c1CCCC2` (stereo not drawn) [Example 118, 3-hydroxy-2-(5,6,7,8-tetrahydro-2-phenyl-4-quinazolinylamino)-N,N-dipropylpropanamide], with 1.07 nM.
To `CCCN(CCC)C(=O)C1CCCN1c1nc(-c2ccccc2)nc2c1CCCC2` (stereo not drawn) [Example 119, 1-(5,6,7,8-Tetrahydro-2-phenyl-4-quinazolinyl)-N,N-dipropyl-2-pyrrolidinecarboxamide] belongs 1.45 nM; to `CN(C(=O)C1CCCN1c1nc(-c2ccccc2)nc2c1CCCC2)c1ccc(Cl)cc1` (stereo not drawn) [Example 120, N-(4-Chlorophenyl)-1-(5,6,7,8-tetrahydro-2-phenyl-4-quinazolinyl)-N-methyl-2-pyrrolidinecarboxamide 1/4 hydrate], 1.63 nM; to `CN(C(=O)CNc1nc(-c2ccccc2)ncc1N)c1ccccc1` [Example 124, 2-(5-amino-2-phenyl-4-pyrimidinylamino)-N-methyl-N-phenylacetamide], 5.35 nM.
As for `CCCN(CCC)C(=O)CNc1nc(-c2ccccc2)ncc1CO` [Example 127, 2-(5-hydroxymethyl-2-phenyl-4-pyrimidinylamino)-N,N-dipropylacetamide], the IC50 was determined as 4.35 nM.
To `CCCN(CCC)C(=O)COc1nc(-c2ccc(F)cc2)nc2c1CCCC2` [Example 128, 2-[2-(4-fluorophenyl)-5,6,7,8-tetrahydro-4-quinazolinyloxy]-N,N-dipropylacetamide] belongs 0.79 nM.
To `CCCN(CCC)C(=O)COc1nc(-c2cccc(Cl)c2)nc2c1CCCC2` [Example 130] belongs 1.31 nM; to `CCCN(CCC)C(=O)COc1nc(-c2ccc(Cl)cc2)nc2c1CCCC2` [Example 131], 0.89 nM; to `CCCCN(CCCC)C(=O)COc1nc(-c2ccccc2)nc2c1CCCC2` [Example 133], 2.2 nM.
Compound `CCCCN(CCCC)C(=O)COc1nc(-c2ccc(F)cc2)nc2c1CCCC2` [Example 134] registered an IC50 of 3.07 nM.
Then `CCCCN(CCCC)C(=O)COc1nc(-c2ccc(Cl)cc2)nc2c1CCCC2` [Example 135], with 3.17 nM.
To `CCCN(CCC)C(=O)COc1nc(-c2ccc(Cl)cc2)nc(C)c1C` [Example 137] belongs 0.93 nM.
Then `CCCN(CCC)C(=O)COc1nc(-c2ccc(F)cc2)nc(C)c1C` [Example 138], with 0.53 nM; and `CCCN(CCC)C(=O)COc1nc(-c2ccc(C(F)(F)F)cc2)nc(C)c1C` [Example 141], with 0.11 nM.
`CCCN(CCC)C(=O)COc1nc(-c2ccc([N+](=O)[O-])cc2)nc(C)c1C` [Example 142] gave a concentration for half-maximal inhibition (IC50) of 0.08 nM.
In turn, `Cc1nc(-c2ccccc2)nc(OCC(=O)N(C)c2ccccc2)c1C` [Example 143] had an IC50 of 1.4 nM.
To `Cc1nc(-c2cccc(Cl)c2)nc(OCC(=O)N(C)c2ccccc2)c1C` [Example 145] belongs 1.6 nM; to `Cc1nc(-c2ccc(C(F)(F)F)cc2)nc(OCC(=O)N(C)c2ccccc2)c1C` [Example 147], 0.52 nM.
The compound `Cc1nc(-c2ccccc2)nc(OCC(=O)N(C)c2ccc(Cl)cc2)c1C` [Example 149] showed a half-maximal inhibitory concentration (IC50) of 1.14 nM.
In turn, `CCN(C(=O)COc1nc(-c2ccccc2)nc(C)c1C)c1ccccc1` [Example 151] returned an IC50 of 0.58 nM.
